Reference: patent publication US20200079766A1, “MONOCYCLIC OGA INHIBITOR COMPOUNDS” (Janssen Pharmaceutica NV, priority 2016, published 2020)

How the values were obtained:
[1] = target: T1, recombinant human Meningioma Expressed Antigen 5 (MGEA5), also referred to as O-GlcNAcase (OGA) (Homo sapiens, UniProt O60502); assay: OGA biochemical assay: inhibition of FM-GlcNAc hydrolysis, fluorescence; protocol A (10 nM OGA, 1 h) or protocol B (2 nM OGA, 6 h); conditions: Enzymatic protocol B (2 nM OGA, 6 h); for IC50: read-out: Enzymatic hOGA, pIC50 (converted)
T1 construct: Full length OGA enzyme was purchased at OriGene (cat # TP322411); purchased OriGene TP322411
T1 sequence (O60502 1-916): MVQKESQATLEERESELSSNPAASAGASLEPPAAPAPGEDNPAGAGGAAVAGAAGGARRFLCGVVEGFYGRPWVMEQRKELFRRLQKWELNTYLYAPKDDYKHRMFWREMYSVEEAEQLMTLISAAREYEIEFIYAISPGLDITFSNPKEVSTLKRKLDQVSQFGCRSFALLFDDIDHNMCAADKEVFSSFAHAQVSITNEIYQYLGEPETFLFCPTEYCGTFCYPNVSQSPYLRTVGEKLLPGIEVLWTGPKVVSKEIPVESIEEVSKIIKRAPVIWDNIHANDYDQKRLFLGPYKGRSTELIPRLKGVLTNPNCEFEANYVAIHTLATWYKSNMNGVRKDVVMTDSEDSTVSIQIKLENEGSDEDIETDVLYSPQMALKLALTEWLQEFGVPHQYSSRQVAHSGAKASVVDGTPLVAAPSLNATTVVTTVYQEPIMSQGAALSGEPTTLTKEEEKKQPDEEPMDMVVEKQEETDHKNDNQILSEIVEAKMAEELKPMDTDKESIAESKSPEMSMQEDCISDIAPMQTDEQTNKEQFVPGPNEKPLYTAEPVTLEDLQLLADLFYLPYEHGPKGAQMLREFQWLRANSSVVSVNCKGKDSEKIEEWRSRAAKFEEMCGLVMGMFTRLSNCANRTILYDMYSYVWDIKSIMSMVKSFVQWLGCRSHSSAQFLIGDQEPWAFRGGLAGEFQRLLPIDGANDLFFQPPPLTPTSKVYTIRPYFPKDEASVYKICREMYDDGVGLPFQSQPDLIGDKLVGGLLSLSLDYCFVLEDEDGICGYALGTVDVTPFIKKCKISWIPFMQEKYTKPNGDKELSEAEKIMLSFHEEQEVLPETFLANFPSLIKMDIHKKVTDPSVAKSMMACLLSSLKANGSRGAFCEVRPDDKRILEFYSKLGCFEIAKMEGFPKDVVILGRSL
Summary of the method: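 Full-length human OGA in 200 mM citrate/phosphate pH 7.2 with 0.005% Tween-20, compound pre-incubated 60 min at RT, then 100 uM FM-GlcNAc (final); 10 nM enzyme for 1 h or 2 nM for 6 h at RT. Stopped with pH 11.0 carbonate; fluorescein read at ex 485/em 538 nm. IC50 and Hill coefficient from curve fit.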

[2] = test system: OGA in HEK293 cells inducible for P301L mutant human Tau (isoform 2N4R); assay: OGA cellular assay: immunocytochemical detection of O-GlcNAcylated proteins (CTD110.6 antibody) after 6 h incubation; type: cell-based; conditions: for Emax / EC50: Homo sapiens, HEK293, 6 h; for Emax / Cellular Emax (%): maximum = Thiamet G 200 uM; for EC50: read-out: Cellular hOGA, pEC50 (converted)
Summary of the method: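 Low-glucose medium, 6 h compound exposure at 0.2% DMSO; cells PFA-fixed and O-GlcNAc ICC signal imaged at 488 nm (9 fields/well), Hoechst nuclei counted for toxicity. Thiamet G 200 uM on each plate as maximum; IC50 from non-linear regression.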

| Structure (SMILES) | Emax [1] [%] | IC50 [1] [nM] | Emax [2] [%] | EC50 [2] [nM] | Enzymatic Emax (%) [1] [%] | Enzymatic hOGA; pIC50 [1] | Cellular hOGA; pEC50 [2] | Cellular Emax (%) [2] [%] |
| --- | --- | --- | --- | --- | --- | --- | --- | --- |
| CC(=O)Nc1ncc(CN2CC[C@H](Cc3ccnc(F)c3)C2)s1 [compound 56] | 101 | 22.9 | 90.3 | 64.6 |  |  |  |  |
| CC(=O)Nc1ncc(CN2CC[C@H](Cc3ncc(C)nc3C)C2)s1 [compound 58] | 101 | 3.16 | 90.6 | 40.7 |  |  |  |  |
| CC(=O)Nc1ncc(CN2CC[C@H](Cc3cc(C)cnn3)C2)s1 [compound 59] | 101 | 25.7 | 80.3 | 145 |  |  |  |  |
| CC(=O)Nc1ncc(CN2CCC(Cc3cc(C(F)(F)F)cc(C)n3)C2)s1 (stereo not drawn) [compound 60] |  |  |  |  | 101.3 | 7.30 | 7.03 | 87.4 |
| CC(=O)Nc1ncc(CN2CC[C@H](Cc3ccc(C)nc3)C2)s1 [compound 61] |  |  |  |  | 101.2 | 7.71 | 7.22 | 96.3 |
| CC(=O)Nc1ncc(CN2CC[C@H](Cc3cnc(C)nc3)C2)s1 [compound 62] |  |  |  |  | 102.4 | 7.93 | 7.20 | 81.8 |
| CC(=O)Nc1ncc(CN2CC[C@H](Cc3ccnc(C)c3)C2)s1 [compound 63] |  |  |  |  | 101.9 | 7.90 | 7.46 | 90.1 |
| CC(=O)Nc1ncc(CN2CCC(Cc3cnc(C(F)(F)F)cn3)C2)s1 (stereo not drawn) [compound 64] |  |  |  |  | 102.9 | 7.34 | 7.04 | 89.3 |
| COc1cncc(CC2CCN(Cc3cnc(NC(C)=O)s3)C2)n1 (stereo not drawn) [compound 66] |  |  |  |  | 101 | 8.53 | 7.43 | 100.6 |
| COc1nccnc1CC1CCN(Cc2cnc(NC(C)=O)s2)C1 (stereo not drawn) [compound 67] |  |  |  |  | 100.9 | 7.70 | 6.92 | 84.5 |
| CC(=O)Nc1ncc(CN2CC[C@H](Cc3cc(C)c(C)cn3)C2)s1 [compound 69] | 103 | 6.17 | 101 | 74.1 |  |  |  |  |
| CC(=O)Nc1ncc(CN2CC[C@H](Cc3nccc(C)c3C)C2)s1 [compound 70] | 102 | 66.1 | 97.7 | 129 |  |  |  |  |
| CC(=O)Nc1ncc(CN2CC[C@H](Cc3ccc(C)nc3C)C2)s1 [compound 71] | 99.6 | 12 | 94.8 | 36.3 |  |  |  |  |
| CC(=O)Nc1ncc(CN2CC[C@H](Cc3ccnc(C)c3C)C2)s1 [compound 72] | 102 | 7.94 | 109 | 32.4 |  |  |  |  |
| CC(=O)Nc1ncc(CN2CC[C@H](Cc3cc(C)ncc3C(F)(F)F)C2)s1 [compound 73] |  |  |  |  | 101.4 | 7.81 | 6.95 | 94 |
| CC(=O)Nc1ncc(CN2CC[C@H](Cc3ccncc3C)C2)s1 [compound 74] |  |  |  |  | 101 | 8.01 | 7.34 | 115.8 |
| CC(=O)Nc1ncc(CN2CCC(Cc3ncc(F)cc3F)C2)s1 (stereo not drawn) [compound 75] |  |  |  |  | 99.3 | 7.63 | 7.11 | 104.1 |
| CC(=O)Nc1ncc(CN2CC[C@H](Cc3cc(C)nc(C(F)(F)F)c3)C2)s1 [compound 76] |  |  |  |  | 102.4 | 7.59 | 7.56 | 92.3 |
| CC(=O)Nc1ncc(CN2CCC(Cc3cc(C)nc(C)n3)C2)s1 (stereo not drawn) [compound 77] |  |  |  |  | 101.8 | 7.91 | 7.27 | 91.1 |
| CCc1cc(C[C@H]2CCN(Cc3cnc(NC(C)=O)s3)C2)cc(C)n1.Cl [compound 80] |  |  |  |  | 101.5 | 8.24 | 7.94 | 90 |
| CC(=O)Nc1ncc(CN2CCC(OCc3cc(C)nc(C)c3)C2)s1 (stereo not drawn) [compound 81] | 102 | 72.4 | 51.7 | 501 |  |  |  |  |
| CC(=O)Nc1ncc(CN2CC[C@H](Cc3ccc(C)nc3C#N)C2)s1 [compound 84] |  |  |  |  | 102.6 | 8.30 | 7.43 | 81.9 |
| CC(=O)Nc1ncc(CN2CC[C@H](Cc3cc(C)cc(C)n3)C2)s1 [compound 85] | 101 | 8.71 | 86.9 | 46.8 |  |  |  |  |
| CC(=O)Nc1ncc(CN2CCC(Cc3cnc(C)c(C)n3)C2)s1 (stereo not drawn) [compound 86] |  |  |  |  | 101.3 | 8.49 | 7.4 | 83.5 |
| CC(=O)Nc1ncc(CN2CCC(COc3cc(C)nc(C)c3)C2)s1 (stereo not drawn) [compound 89] | 100 | 26.3 | 72.4 | 81.3 |  |  |  |  |
| CC(=O)Nc1ncc(CN2CCC(Cc3ccc(C)nn3)C2)s1 (stereo not drawn) [compound 90] |  |  |  |  | 100 | 7.77 | 6.83 | 73.7 |
| CC(=O)Nc1ncc(CN2CCC(Cc3cnc(C#N)cn3)C2)s1 (stereo not drawn) [compound 91] |  |  |  |  | 102 | 8.21 | 7.28 | 102.1 |
| CC(=O)Nc1ncc(CN2CC[C@H](Cc3cnc(C(=O)NC(C)(C)C)cn3)C2)s1 [compound 92] | 99.7 | 22.4 | 92.6 | 81.3 |  |  |  |  |
| CC(=O)Nc1ncc(CN2CCC(Cc3cncnc3C)C2)s1 (stereo not drawn) [compound 103] | 103 | 46.8 | 86.9 | 132 |  |  |  |  |
| CC(=O)Nc1ncc(CN2CCC(Cc3ncc(F)cc3C)C2)s1 (stereo not drawn) [compound 104] | 102 | 20 | 89.4 | 58.9 |  |  |  |  |
